According to PMC10892423 (Pharmaceutics, 2024):
pIC50: −log10 of the molar value. Values after ≈ are worked out from the molar mass of the structure shown. One block for each compound: values may come before it.

Columns and labels:
AmpC = molecular target: T1, AmpC (Escherichia coli, UniProt P00811); experiment: β-lactamase inhibition, nitrocefin hydrolysis; type: biochemical
T1 construct: made in house
Excerpt: (§1) Recombinant AmpC from Escherichia coli was produced according to a previously reported protocol. KPC-2 and NDM-1 […] were purchased from LifeSpan Biosciences, Inc. (Lynnwood, WA, USA) (LS-G26598) and RayBiotech, Inc. (Peachtree Corners, GA, USA) (230-00554), respectively. Genes encoding OXA-48 (residues 23–265) and VIM-2 (residues 27–266) were custom-synthesized (Bioneer Inc., Seoul, Republic of Korea) and expressed as previously described. The β-lactamase inhibitory activity of the title compounds was then determined according to the previously reported methods. Briefly, equal volumes (100 μL) of the title compounds (70–0.1 μM in PBS) and diluted enzyme stock were mixed (final concentration 2% of DMSO in 200 μL) in 96-well plates, which were then incubated at 37 °C for 20 min. The incubated mixture was added to each well containing substrates (nitrocefin for AmpC, KPC-2, OXA-48, and VIM-2; and imipenem for NDM-1) of final concentrations of 70 μM for nitrocefin and 100 μM for imipenem. Substrate hydrolysis was monitored at 486 nm (nitrocefin) or 300 nm (imipenem) for 15 min, using a Cytation 5 imaging multimode reader (BioTek Instruments Inc., Winooski, VT, USA). At the plateau level of hydrolysis, the corresponding rates of hydrolysis were compared to those obtained without inhibitors (100%) to determine the percentage of enzyme inhibition at each concentration of the title compounds. The IC50 values of the compounds were derived from sigmoidal dose–response curves, using GraphPad Prism 5 (GraphPad Software, Boston, MA, USA).

KPC-2 = molecular target: T2, KPC-2 (Klebsiella pneumoniae, UniProt Q9F663); experiment: β-lactamase inhibition, nitrocefin hydrolysis; type: biochemical; conditions: nitrocefin substrate; read-out: β-Lactamases, IC50 KPC-2
T2 construct: purchased LifeSpan Biosciences, Inc. LS-G26598
T2 sequence (Q9F663 25-293, looked up): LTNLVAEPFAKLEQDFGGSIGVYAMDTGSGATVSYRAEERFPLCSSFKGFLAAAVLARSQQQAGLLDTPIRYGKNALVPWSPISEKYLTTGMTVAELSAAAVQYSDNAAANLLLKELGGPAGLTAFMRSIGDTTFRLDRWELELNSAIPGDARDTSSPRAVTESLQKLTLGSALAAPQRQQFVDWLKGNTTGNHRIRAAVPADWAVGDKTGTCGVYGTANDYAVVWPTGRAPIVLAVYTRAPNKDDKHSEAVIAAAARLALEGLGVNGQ
Excerpt: as §1

OXA-48 = molecular target: T3, OXA-48 (Klebsiella pneumoniae, UniProt Q6XEC0); experiment: β-lactamase inhibition, nitrocefin hydrolysis; type: biochemical; conditions: nitrocefin substrate; read-out: β-Lactamases, IC50 OXA-48
T3 construct: Genes encoding OXA-48 (residues 23–265) and VIM-2 (residues 27–266) were custom-synthesized; made in house
T3 sequence (Q6XEC0 23-265 limits assumed): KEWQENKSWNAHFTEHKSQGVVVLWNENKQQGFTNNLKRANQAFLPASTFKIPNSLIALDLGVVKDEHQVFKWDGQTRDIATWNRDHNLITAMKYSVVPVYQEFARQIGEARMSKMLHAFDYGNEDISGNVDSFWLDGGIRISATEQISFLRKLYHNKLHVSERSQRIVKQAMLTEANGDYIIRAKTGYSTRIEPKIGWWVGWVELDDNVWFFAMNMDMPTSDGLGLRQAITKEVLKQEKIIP
Excerpt: as §1

VIM-2 = molecular target: T4, VIM-2 (Escherichia coli, UniProt Q5U7L7); experiment: β-lactamase inhibition, nitrocefin hydrolysis; type: biochemical; conditions: nitrocefin substrate; read-out: β-Lactamases, IC50 VIM-2
T4 construct: Genes encoding OXA-48 (residues 23–265) and VIM-2 (residues 27–266) were custom-synthesized; made in house
Excerpt: as §1

NDM-1 = molecular target: T5, NDM-1 (Klebsiella pneumoniae, UniProt C7C422); experiment: β-lactamase inhibition, imipenem hydrolysis; type: biochemical; conditions: imipenem substrate; read-out: β-Lactamases, IC50 NDM-1
T5 construct: purchased RayBiotech, Inc. 230-00554
T5 sequence (C7C422 29-270, looked up, species assumed): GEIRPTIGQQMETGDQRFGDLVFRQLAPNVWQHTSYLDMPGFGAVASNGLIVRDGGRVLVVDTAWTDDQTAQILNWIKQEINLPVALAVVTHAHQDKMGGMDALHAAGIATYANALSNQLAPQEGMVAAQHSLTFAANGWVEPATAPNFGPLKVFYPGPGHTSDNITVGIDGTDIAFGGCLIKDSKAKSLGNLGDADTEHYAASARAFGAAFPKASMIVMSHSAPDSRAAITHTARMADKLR
Excerpt: as §1

[1] = test system: MBL-producing P. aeruginosa clinical isolates; experiment: MIC by broth microdilution (CLSI); type: cell-based, Pseudomonas aeruginosa; conditions: for MIC: Pseudomonas aeruginosa
Protocol: The DMSO stock solutions of the test compounds were serially diluted to the desired concentrations in CAMHB. Then, 10 μL of the bacterial suspension (5 × 10^5 colony forming units (CFU)/mL) was combined with 200 μL of DMSO stock solutions of the test compounds in 96-well microtiter plates (1% DMSO, final). After the incubation of the plate at 37 °C for 24 h, bacterial growth was visibly evaluated by monitoring the turbidity of the resulting suspension, and the MICs were determined as the lowest concentrations of the test compounds that inhibited the visible growth of the bacteria.

T1 sequence (P00811 20-377): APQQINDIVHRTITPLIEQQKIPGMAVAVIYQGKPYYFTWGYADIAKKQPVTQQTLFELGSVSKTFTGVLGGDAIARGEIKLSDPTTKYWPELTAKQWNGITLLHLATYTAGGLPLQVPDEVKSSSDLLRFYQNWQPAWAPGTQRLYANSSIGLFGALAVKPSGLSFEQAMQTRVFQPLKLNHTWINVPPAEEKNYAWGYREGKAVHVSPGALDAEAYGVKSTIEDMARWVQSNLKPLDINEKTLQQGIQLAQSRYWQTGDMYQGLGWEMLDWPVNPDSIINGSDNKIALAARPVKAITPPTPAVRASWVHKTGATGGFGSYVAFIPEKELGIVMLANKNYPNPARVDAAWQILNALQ

Compound: O=c1c(OCCOCCOCCO)c(-c2ccc(F)c(F)c2)oc2cc(O)cc(O)c12 [Compound 10]
pIC50 (AmpC): < 4.30
pIC50 (KPC-2): < 4.30
pIC50 (OXA-48): < 4.00
pIC50 (VIM-2): < 4.00
pIC50 (NDM-1): < 4.30

Compound: NCCOCCOc1c(-c2ccc(F)c(F)c2)oc2cc(O)cc(O)c2c1=O [Compound 11]
pIC50 (AmpC): < 4.30
pIC50 (KPC-2): < 4.30
pIC50 (OXA-48): < 4.00
pIC50 (VIM-2): < 4.00
pIC50 (NDM-1): < 4.30

Compound: O=c1c(OCCc2cccs2)c(-c2ccc(F)c(F)c2)oc2cc(O)cc(O)c12 [Compound 12]
pIC50 (AmpC): < 4.30
pIC50 (KPC-2): < 4.30
pIC50 (OXA-48): < 4.00
pIC50 (VIM-2): < 4.00
pIC50 (NDM-1): < 4.30

Compound: CN(C)CCOc1c(-c2ccc(F)c(F)c2)oc2cc(O)cc(O)c2c1=O [Compound 13]
pIC50 (AmpC): < 4.30
pIC50 (KPC-2): < 4.30
pIC50 (OXA-48): < 4.00
pIC50 (VIM-2): < 4.00
pIC50 (NDM-1): < 4.30

MIC ([1]; PA-001, blaNDM): > 16 µg/mL
MIC ([1]; PA-002, blaIMP): > 16 µg/mL
MIC ([1]; PA-007, blaNDM): 16 µg/mL (≈ 33.3 µM)
MIC ([1]; PA-008, blaNDM): > 16 µg/mL
MIC ([1]; PA-011, blaNDM): > 16 µg/mL
MIC ([1]; PA-012, blaNDM): > 16 µg/mL
MIC ([1]; PA-016, blaIMP): > 16 µg/mL
MIC ([1]; PA-017, blaNDM): > 16 µg/mL
MIC ([1]; PA-019, blaNDM): > 16 µg/mL
MIC ([1]; PA-020, blaNDM): 16 µg/mL (≈ 33.3 µM)
MIC ([1]; PA-023, blaNDM): > 16 µg/mL
MIC ([1]; PA-025, blaNDM): > 16 µg/mL
MIC ([1]; PA-027, blaIMP): > 16 µg/mL
MIC ([1]; PA-028, blaNDM): > 16 µg/mL
MIC ([1]; PA-029, blaIMP): > 16 µg/mL
MIC ([1]; PA-030, blaIMP): > 16 µg/mL
MIC ([1]; PA-034, blaNDM): > 16 µg/mL
MIC ([1]; PA-036, blaNDM): > 16 µg/mL
MIC ([1]; PA-038, blaNDM): > 16 µg/mL
MIC ([1]; PA-039, blaNDM): > 16 µg/mL
MIC ([1]; PA-044, blaNDM): > 16 µg/mL
Compound: CO/N=C(\C(=O)N[C@@H]1C(=O)N2C(C(=O)[O-])=C(C[N+]3(C)CCCC3)CS[C@H]12)c1csc(N)n1 [FEP, cefepime]

MIC ([1]; PA-001, blaNDM): > 8 µg/mL
MIC ([1]; PA-002, blaIMP): > 8 µg/mL
MIC ([1]; PA-007, blaNDM): > 8 µg/mL
MIC ([1]; PA-008, blaNDM): > 8 µg/mL
MIC ([1]; PA-011, blaNDM): > 8 µg/mL
MIC ([1]; PA-012, blaNDM): 8 µg/mL (≈ 16.8 µM)
MIC ([1]; PA-016, blaIMP): > 8 µg/mL
MIC ([1]; PA-017, blaNDM): > 8 µg/mL
MIC ([1]; PA-019, blaNDM): > 8 µg/mL
MIC ([1]; PA-020, blaNDM): > 8 µg/mL
MIC ([1]; PA-023, blaNDM): > 8 µg/mL
MIC ([1]; PA-025, blaNDM): > 8 µg/mL
MIC ([1]; PA-027, blaIMP): > 8 µg/mL
MIC ([1]; PA-028, blaNDM): > 8 µg/mL
MIC ([1]; PA-029, blaIMP): > 8 µg/mL
MIC ([1]; PA-030, blaIMP): > 8 µg/mL
MIC ([1]; PA-034, blaNDM): > 8 µg/mL
MIC ([1]; PA-036, blaNDM): > 8 µg/mL
MIC ([1]; PA-038, blaNDM): > 8 µg/mL
MIC ([1]; PA-039, blaNDM): ≤ 2 µg/mL
MIC ([1]; PA-044, blaNDM): > 8 µg/mL
Compound: CNC(C)C1CCC(N)C(OC2C(N)CC(N)C(OC3OCC(C)(O)C(NC)C3O)C2O)O1 (centres unmarked) [GEN, gentamicin]

MIC ([1]; PA-001, blaNDM): > 8 µg/mL
MIC ([1]; PA-002, blaIMP): > 8 µg/mL
MIC ([1]; PA-007, blaNDM): > 8 µg/mL
MIC ([1]; PA-008, blaNDM): > 8 µg/mL
MIC ([1]; PA-011, blaNDM): > 8 µg/mL
MIC ([1]; PA-012, blaNDM): > 8 µg/mL
MIC ([1]; PA-016, blaIMP): > 8 µg/mL
MIC ([1]; PA-017, blaNDM): > 8 µg/mL
MIC ([1]; PA-019, blaNDM): > 8 µg/mL
MIC ([1]; PA-020, blaNDM): > 8 µg/mL
MIC ([1]; PA-023, blaNDM): > 8 µg/mL
MIC ([1]; PA-025, blaNDM): > 8 µg/mL
MIC ([1]; PA-027, blaIMP): > 8 µg/mL
MIC ([1]; PA-028, blaNDM): > 8 µg/mL
MIC ([1]; PA-029, blaIMP): > 8 µg/mL
MIC ([1]; PA-030, blaIMP): > 8 µg/mL
MIC ([1]; PA-034, blaNDM): > 8 µg/mL
MIC ([1]; PA-036, blaNDM): > 8 µg/mL
MIC ([1]; PA-038, blaNDM): > 8 µg/mL
MIC ([1]; PA-039, blaNDM): > 8 µg/mL
MIC ([1]; PA-044, blaNDM): > 8 µg/mL
Compound: C[C@@H](O)[C@H]1C(=O)N2C(C(=O)O)=C(SCCN=CN)C[C@H]12 [IPM, imipenem]

MIC ([1]; PA-001, blaNDM): > 32 µg/mL
MIC ([1]; PA-002, blaIMP): > 32 µg/mL
MIC ([1]; PA-007, blaNDM): > 32 µg/mL
MIC ([1]; PA-008, blaNDM): > 32 µg/mL
MIC ([1]; PA-011, blaNDM): > 32 µg/mL
MIC ([1]; PA-012, blaNDM): > 32 µg/mL
MIC ([1]; PA-016, blaIMP): > 32 µg/mL
MIC ([1]; PA-017, blaNDM): > 32 µg/mL
MIC ([1]; PA-019, blaNDM): > 32 µg/mL
MIC ([1]; PA-020, blaNDM): > 32 µg/mL
MIC ([1]; PA-023, blaNDM): > 32 µg/mL
MIC ([1]; PA-025, blaNDM): > 32 µg/mL
MIC ([1]; PA-027, blaIMP): > 32 µg/mL
MIC ([1]; PA-028, blaNDM): > 32 µg/mL
MIC ([1]; PA-029, blaIMP): > 32 µg/mL
MIC ([1]; PA-030, blaIMP): > 32 µg/mL
MIC ([1]; PA-034, blaNDM): > 32 µg/mL
MIC ([1]; PA-036, blaNDM): > 32 µg/mL
MIC ([1]; PA-038, blaNDM): > 32 µg/mL
MIC ([1]; PA-039, blaNDM): > 32 µg/mL
MIC ([1]; PA-044, blaNDM): > 32 µg/mL
Compound: C[C@@H](O)[C@H]1C(=O)N2C(C(=O)O)=C(S[C@@H]3CN[C@H](C(=O)N(C)C)C3)[C@H](C)[C@H]12 [MEM, meropenem]

Compound: colistin [CST]
MIC Value ([1]; PA-001, blaNDM): ≤1 mg/L
MIC Value ([1]; PA-002, blaIMP): ≤1 mg/L
MIC Value ([1]; PA-007, blaNDM): ≤1 mg/L
MIC Value ([1]; PA-008, blaNDM): ≤1 mg/L
MIC Value ([1]; PA-011, blaNDM): ≤1 mg/L
MIC Value ([1]; PA-012, blaNDM): ≤1 mg/L
MIC Value ([1]; PA-016, blaIMP): ≤1 mg/L
MIC Value ([1]; PA-017, blaNDM): ≤1 mg/L
MIC Value ([1]; PA-019, blaNDM): ≤1 mg/L
MIC Value ([1]; PA-020, blaNDM): ≤1 mg/L
MIC Value ([1]; PA-023, blaNDM): ≤1 mg/L
MIC Value ([1]; PA-025, blaNDM): ≤1 mg/L
MIC Value ([1]; PA-027, blaIMP): ≤1 mg/L
MIC Value ([1]; PA-028, blaNDM): ≤1 mg/L
MIC Value ([1]; PA-029, blaIMP): ≤1 mg/L
MIC Value ([1]; PA-030, blaIMP): ≤1 mg/L
MIC Value ([1]; PA-034, blaNDM): ≤1 mg/L
MIC Value ([1]; PA-036, blaNDM): ≤1 mg/L
MIC Value ([1]; PA-038, blaNDM): ≤1 mg/L
MIC Value ([1]; PA-039, blaNDM): ≤1 mg/L
MIC Value ([1]; PA-044, blaNDM): ≤1 mg/L
